The subject of data set [1] is lung graft (cardiac arrest donor lungs). Briefly: Left-lung transplantation model with cardiac arrest donor lungs; pulmonary function parameters over 6 hours after transplantation. In kind it is in vivo, adult mongrel dogs. The source says:
The lung preserving effect of the lung graft preservative composition of this invention in the transplantation of cardiac arrest donor lungs was experimentally evaluated.
[Test substance] L-Ascorbyl DL-α-tocopheryl phosphate potassium (abbreviation: EPC-K) dissolved in modified Euro-Collins solution ^1)
[Method] The left-lung transplantation model was constructed in adult mongrel dogs and used. The donor was brought to cardiac standstill by intravenous administration of potassium chloride solution and allowed to stand at room temperature for 2 hours. Then, while Group I (n=3) was perfused with Euro-Collins solution, an organ preservative which is commonly used in lung transplantation, Group II (n=3) was perfused with the lung graft preservative composition of this invention, followed by preservation at 4° C. for 12 hours. After the lung was transplanted into the recipient, the right pulmonary artery and right main branchus were ligated and the pulmonary function parameters were determined over a period of 6 hours.

Another data set is described as follows: Acute toxicity LD50. On the set-up: species or system rats. To be noted: rat, in vivo.

A value given as a limit tells only on which side of the number the result lay.

The LD50 is the dose at which mortality reaches 50%. Read a high LD50 as lower toxicity.

As to `Cc1c(C)c2c(c(C)c1OP(=O)(O)OC1=C(O)[C@@H]([C@@H](O)CO)OC1=O)CCC(C)(CCCC(C)CCCC(C)CCCC(C)C)O2` (mixture of isomers) [EPC-K, L-Ascorbyl DL-α-tocopheryl phosphate potassium], the “arterial blood carbon dioxide partial pressure (PaCO2)” value in data set [1] (5 hours after lung transplantation, preserved at 4° C. for 12 hours, n=3) was found to be 32.4±20.9 mmHg. Also, in data set [1] (6 hours after lung transplantation, donor lung 2 h at room temperature after cardiac standstill, preserved at 4° C. for 12 hours, n=3), the “arterial blood oxygen partial pressure (PaO2)” value is 460±94 mmHg. In addition, in data set [1] (FIG. 3, vs. Euro-Collins solution (control)), the “extravascular lung water (EVLW), indicator of pulmonary edema” value is “effective in inhibiting edema”. Besides, the “pulmonary vascular resistance (PVR)” value in data set [1] (FIG. 5, vs. Euro-Collins solution (control)) was “inhibits the increase of pulmonary vascular resistance”. Moreover, in data set [1] (FIG. 6, vs. Euro-Collins solution (control)), the “pulmonary arterial pressure (PAP)” value is listed as “inhibits pulmonary edema without increasing pulmonary vascular resistance”. Moreover, the “cardiac output (CO)” value in data set [1] (FIG. 7, vs. Euro-Collins solution (control)) was “exerts no adverse influence on the heart”. The “pulmonary blood shunt fraction” value in data set [1] (after 1 and 2 hours, FIG. 4, vs. Euro-Collins solution (control)) was “pulmonary blood shunt inhibitory effect which is significant after 1 and 2 hours”. The “arterial blood carbon dioxide partial pressure (PaCO2), effect in words” value in data set [1] (after 5 hours, vs. Group I (Euro-Collins solution), FIG. 2) is reported as “remarkably effective”. Moreover, the “various parameters of pulmonary function” value in data set [1] (after blood reperfusion) is “very favorable effects on various parameters of pulmonary function”. Further, in data set [1] (time-points other than 1 and 2 hours, FIG. 4), the “pulmonary blood shunt fraction, other time-points” value is reported as “This inhibitory effect was also noted at other time-points”. For the same molecule, the “arterial blood oxygen partial pressure (PaO2), other time-points” value in data set [1] (time-points other than 6 hours, vs. Group I (Euro-Collins solution), FIG. 1) was “Results in Favor of Group II were obtained at other time-points, too”. Further, the LD50 in “Acute toxicity LD50” (iv, i.v. (rats)) is at least 100 mg/kg; in “Acute toxicity LD50” (po, p.o. (rats)) it was at least 5000 mg/kg.

The values above are taken from US5556842A, “Method for viable preservation of lung grafts” (Senju Pharmaceutical Co., Ltd., priority 1994, dated 1996).
